Measured values as given in ChEMBL document CHEMBL5385891, “Design and discovery of novel dipeptide boronic acid ester proteasome inhibitors, an oral slowly-released prodrug for the treatment of multiple myeloma” (Eur J Med Chem, 2023).

Columns and labels:
RPMI-8226 = test: Cytotoxicity against human RPMI-8226 cells assessed as inhibition of cell proliferation incubated for 72 hrs by Cell Titer-Glo luminescence assay; assay type: functional, cell-based; settings: RPMI-8226, 72 h
20S proteasome = test: Inhibition of human 20S proteasome chymotrypsin-like activity using Suc-Leu-Leu-Val-Tyr-AMC as fluorogenic peptide pre-incubated for 10 mins with compound followed by substrate addition for 60 mins by spectrofluorimetric analysis; assay type: protein-complex assay
[1] = Stability of the compound in stimulated […] fluid at pH 1.2 measured after 1 min; assay type: ADME; settings: simulated gi fluid, pH 1.2, 1 min
[2] = Stability of the compound in stimulated […] fluid at pH 1.2 measured after 2 hrs; assay type: ADME; settings: simulated gi fluid, pH 1.2, 2 h
[3] = Stability of the compound in stimulated […] fluid at pH 1.2 measured after 4 hrs; assay type: ADME; settings: simulated gi fluid, pH 1.2, 4 h
[4] = Stability of the compound in stimulated […] fluid at pH 6.8 measured after 4 hrs; assay type: ADME; settings: simulated intestinal fluid, read-out: Stability
[5] = Stability of the compound in stimulated […] fluid at pH 6.8 measured after 8 hrs; assay type: ADME; settings: simulated intestinal fluid, read-out: Stability
[6] = Stability of the compound in stimulated […] fluid at pH 6.8 measured after 1 min; assay type: ADME; settings: simulated intestinal fluid, read-out: Stability
[7] = Stability of the compound in stimulated […] fluid at pH 6.8 measured after 12 hrs; assay type: ADME; settings: simulated intestinal fluid, read-out: Stability
[8] = Stability of the compound in stimulated […] fluid at pH 1.2 measured after 8 hrs; assay type: ADME; settings: simulated gi fluid, pH 1.2, 8 h
[9] = Stability of the compound in stimulated […] fluid at pH 6.8 measured after 2 hrs; assay type: ADME; settings: simulated intestinal fluid, read-out: Stability
[10] = Stability of the compound in stimulated […] fluid at pH 1.2 measured after 12 hrs; assay type: ADME; settings: simulated gi fluid, pH 1.2, 12 h
[11] = Tmax in Sprague-Dawley rat at 1.2 mg/kg,IG measured upto 24 hrs by LC-MS/MS analysis; assay type: ADME, organism-based; settings: in vivo, po
[12] = Half life in Sprague-Dawley rat at 0.4 mg/kg,iv measured upto 24 hrs by LC-MS/MS analysis; assay type: ADME, organism-based; settings: in vivo
[13] = Intrinsic clearance in monkey liver microsomes at 1 uM incubated for 2 to 60 mins in presence of NADPH by LC-MS/MS analysis; assay type: ADME, Macaca mulatta, Microsome; settings: rhesus monkey, time 2-60 min, read-out: CLH
[14] = AUC (0-t) in Sprague-Dawley rat at 0.4 mg/kg,iv measured upto 24 hrs by LC-MS/MS analysis; assay type: ADME, organism-based; design: time < 24 hrs, dose 0.4 mg/kg, route iv; settings: in vivo
[15] = Half life in monkey liver microsomes at 1 uM incubated for 2 to 60 mins in presence of NADPH by LC-MS/MS analysis; assay type: ADME, Macaca mulatta, Microsome; settings: rhesus monkey, time 2-60 min
[16] = Half life in dog liver microsomes at 1 uM incubated for 2 to 60 mins in presence of NADPH by LC-MS/MS analysis; assay type: ADME, Canis lupus familiaris, Microsome; settings: time 2-60 min
[17] = Half life in human liver microsomes at 1 uM incubated for 2 to 60 mins in presence of NADPH by LC-MS/MS analysis; assay type: ADME, Microsome; settings: time 2-60 min
[18] = Half life in Sprague-Dawley rat at 1.2 mg/kg,IG measured upto 24 hrs by LC-MS/MS analysis; assay type: ADME, organism-based; settings: in vivo, po
[19] = AUC(0-t) in Sprague-Dawley rat at 1.2 mg/kg,IG measured upto 24 hrs by LC-MS/MS analysis; assay type: ADME, organism-based; design: dose 1.2 mg/kg, time < 24 hrs, route ig; settings: in vivo, po
[20] = Intrinsic clearance in human liver microsomes at 1 uM incubated for 2 to 60 mins in presence of NADPH by LC-MS/MS analysis; assay type: ADME, Microsome; settings: time 2-60 min, read-out: CLH
[21] = Half life in mouse liver microsomes at 1 uM incubated for 2 to 60 mins in presence of NADPH by LC-MS/MS analysis; assay type: ADME, Microsome; settings: time 2-60 min
[22] = Intrinsic clearance in rat liver microsomes at 1 uM incubated for 2 to 60 mins in presence of NADPH by LC-MS/MS analysis; assay type: ADME, Microsome; settings: time 2-60 min, read-out: CLH
[23] = Oral bioavailability in Sprague-Dawley rat at 1.2 mg/kg measured upto 24 hrs by LC-MS/MS analysis; assay type: ADME, organism-based; settings: in vivo
[24] = Intrinsic clearance in dog liver microsomes at 1 uM incubated for 2 to 60 mins in presence of NADPH by LC-MS/MS analysis; assay type: ADME, Canis lupus familiaris, Microsome; settings: time 2-60 min, read-out: CLH
[25] = Cmax in Sprague-Dawley rat at 1.2 mg/kg,IG measured upto 24 hrs by LC-MS/MS analysis; assay type: ADME, organism-based; design: time < 24 hrs, dose 1.2 mg/kg, route ig; settings: in vivo, po
[26] = Half life in rat liver microsomes at 1 uM incubated for 2 to 60 mins in presence of NADPH by LC-MS/MS analysis; assay type: ADME, Microsome; settings: time 2-60 min
[27] = Intrinsic clearance in mouse liver microsomes at 1 uM incubated for 2 to 60 mins in presence of NADPH by LC-MS/MS analysis; assay type: ADME, Microsome; settings: time 2-60 min, read-out: CLH

Row | SMILES | IC50 (RPMI-8226) [nM] | IC50 (20S proteasome) [nM] | Stability [1] [%] | Stability [2] [%] | Stability [3] [%] | remaining at 4 h [4] [%] | remaining at 8 h [5] [%] | remaining at 1 min [6] [%] | remaining at 12 h [7] [%] | Stability [8] [%] | remaining at 2 h [9] [%] | Stability [10] [%] | further results
1 | CC(C)C[C@H](NC(=O)C(CC1CC1)NC(=O)c1cc(C(F)(F)F)ccc1C(F)(F)F)B(O)O (some centres not stated) | 4.9 | 5 | – | – | – | – | – | – | – | – | – | – | –
2 | CC(C)C[C@H](NC(=O)C1(NC(=O)c2cc(C(F)(F)F)ccc2C(F)(F)F)CC1)B(O)O | – | 86.7 | – | – | – | – | – | – | – | – | – | – | –
3 | CC(C)C[C@H](NC(=O)CNC(=O)c1cc(Cl)ccc1Cl)B1OC2C3OC(c4ccccc43)C2O1 (some centres not stated) | 6.9 | 7.7 | 19.33 | 35.35 | 50.68 | 1.18 | 1.35 | 1.9 | 1.33 | 52.71 | 1.79 | 48.53 | –
4 | CC(C)C[C@H](NC(=O)CNC(=O)c1cc(Cl)ccc1Cl)B1OC2(C)CC3C(=O)NC(=O)C3CC2(C)O1 (some centres not stated) | 7.5 | 8.4 | 53.28 | 51.59 | 53.78 | 9.23 | 6.91 | 5.4 | 7.27 | 41.57 | 7.58 | 38.47 | –
5 | CC(C)C[C@H](NC(=O)CNC(=O)c1cc(F)ccc1F)B(O)O | 41.5 | 20.6 | – | – | – | – | – | – | – | – | – | – | –
6 | Cc1cc(C(=O)NCC(=O)N[C@@H](CC(C)C)B(O)O)no1 | – | 124 | – | – | – | – | – | – | – | – | – | – | –
7 | CC(C)C[C@H](NC(=O)C(NC(=O)c1cc(C(F)(F)F)ccc1C(F)(F)F)C1CC1)B1OC2C3OC(CC3C(=O)O)C2(C)O1 (some centres not stated) | 2.9 | 2.7 | 5.35 | 56.83 | 57.32 | 2.68 | 3.93 | 2.35 | 5.76 | 58.67 | 2.82 | 58.73 | Tmax [11]: 10.2 min; half-life [12]: 1450 min; microsomal CLint at 1 µM [13]: 35.6 µL/min/mg; AUC(0-t) at 24 h [14]: 323 ng·h/mL; half-life at 1 µM [15]: 38.9 min; half-life at 1 µM [16]: 84.5 min; half-life at 1 µM [17]: 66.6 min; half-life [18]: 718 min; AUC(0-t) at 24 h [19]: 126 ng·h/mL; microsomal CLint at 1 µM [20]: 20.8 µL/min/mg; half-life at 1 µM [21]: 36.7 min; microsomal CLint at 1 µM [22]: 55.6 µL/min/mg; bioavailability [23]: 9.8%; microsomal CLint at 1 µM [24]: 16.4 µL/min/mg; Cmax [25]: 46.5 ng/mL; half-life at 1 µM [26]: 24.9 min; microsomal CLint at 1 µM [27]: 37.8 µL/min/mg
8 | CC(C)C[C@H](NC(=O)CNC(=O)c1cc(Cl)ccc1Cl)B1OC2C3OC(CC3C(=O)O)C2(C)O1 (some centres not stated) | 5 | 5.2 | 6.7 | 60.84 | 61.18 | 12.4 | 12.5 | 7.36 | 14.2 | 58.58 | 12.9 | 58.21 | –
9 | CC(C)C[C@H](NC(=O)CNC(=O)c1cc(Cl)ccc1Cl)B1OC2CC3C(=O)NC(=O)C3CC2(C)O1 (some centres not stated) | 8.7 | 9.8 | – | – | – | – | – | – | – | – | – | – | –
10 | CC(C)C[C@H](NC(=O)CNC(=O)c1cc(Cl)ccc1Cl)B1OC2(C)CCC(C(=O)O)CC2(C)O1 (some centres not stated) | 5.3 | 9.6 | 62.06 | 98.08 | 97.62 | 91.5 | 85.7 | 90.1 | 78.7 | 98.81 | 83.7 | 96.98 | –
11 | CC(C)C[C@H](NC(=O)C(NC(=O)c1cc(C(F)(F)F)ccc1C(F)(F)F)C1CC1)B(O)O (some centres not stated) | 6.7 | 5.6 | – | – | – | – | – | – | – | – | – | – | –
